Assay results as given in patent US20250050053A1, “METHOD OF TREATMENT AND SELECTION OF PATIENTS BENEFITING FROM AGOMELATINE BASED ON EEG MEASUREMENTS” (Alto Neuroscience, Inc., priority 2023, published 2025).

Experiments:
[1] = system: patients with major depressive disorder; experiment: Open-label trials of adjunctive agomelatine 25 mg at bedtime; baseline EEG machine learning models predicting change in MADRS; format: in vivo, human
Protocol: The inventors conducted two parallel open-label clinical trials of agomelatine at 25 mg once at bedtime in patients with major depressive disorder (NCT05118750 and NCT05157945, whose data was pooled in these analyses). […] Patients were evaluated over the course of eight weeks of treatment.
EEG data were collected at rest (encompassing both eyes open and eyes closed conditions) prior to treatment using a 19-channel EEG system covering the conventional 10-20 electrode locations. A total of 107 patients with moderate to severe depression (MADRS 20 and PHQ-9≥10) had EEG data (107 with eyes open (REO) EEG, 105 with eyes closed (REC) EEG). Quality control assessments were conducted, yielding 105 REO patient datasets and 103 REC patient datasets. […] The training dataset consisted of 60 REO patient datasets and 60 REC patient datasets. The holdout set consisted of […] and […].
In order to compile these individual signals into a single EEG composite entropy model for prediction of treatment outcome, the inventors conducted 10-fold cross-validated machine learning using elastic net regularization against an outcome of high versus low response to agomelatine. Cross-validation divides the training dataset iteratively into 9/10 for training the machine learning model and 1/10 for evaluating the predictive utility of the model (i.e., participants left out of the training itself, though part of the aforementioned training dataset). The training sample is then divided in this way until each participant has been left out of the training subset.
The Cohen's d effect sizes at these weeks are all >0.4, indicating a substantial effect size for the prediction, especially considering that the meta-analytically calculated all-comer (i.e., unselected depression patients) effect size for the difference in treatment response to agomelatine (as monotherapy) versus placebo is d=0.26 (Cipriani et al., Lancet., 2018, 391(10128):1357-1366, PMID: 29477251).
In addition to sample entropy, the inventors developed similar machine learning models to test the predictive utility of a range of other EEG complexity measures, as well as other common EEG indices. […] Thus, certain complexity measures appear to carry consistent and strong prediction of agomelatine outcome.

[2] = system: unselected depression patients; conditions: Cipriani et al. 2018; cited from earlier work

COc1ccc2cccc(CCNC(C)=O)c2c1 [agomelatine, N-[2-(7-methoxynaphthalen-1-yl)ethyl]acetamide]
Cohen's d effect size, predicted responders vs non-responders, change in MADRS ([1]; EEG sample entropy machine learning model, cross-validation left-out data of training dataset, all weeks): > 0.4 | Cohen's d, prediction of agomelatine outcome ([1]; REC, Approximate Entropy, lower gamma, Week 1): 0.23 | Cohen's d, prediction of agomelatine outcome ([1]; REC, Approximate Entropy, lower gamma, Week 2): 0.29 | Cohen's d, prediction of agomelatine outcome ([1]; REC, Approximate Entropy, lower gamma, Week 4): 0.46 | Cohen's d, prediction of agomelatine outcome ([1]; REC, Detrended Fluctuation Analysis, lower beta, Week 1): 0.49 | Cohen's d, prediction of agomelatine outcome ([1]; REC, Detrended Fluctuation Analysis, lower beta, Week 2): 0.44 | Cohen's d, prediction of agomelatine outcome ([1]; REC, Detrended Fluctuation Analysis, lower beta, Week 4): 0.41 | Cohen's d, prediction of agomelatine outcome ([1]; REC, Detrended Fluctuation Analysis, upper beta, Week 1): 0.19 | Cohen's d, prediction of agomelatine outcome ([1]; REC, Detrended Fluctuation Analysis, upper beta, Week 2): 0.20 | Cohen's d, prediction of agomelatine outcome ([1]; REC, Detrended Fluctuation Analysis, upper beta, Week 4): 0.25 | Cohen's d, prediction of agomelatine outcome ([1]; REC, Higuchi Fractal Dimension, lower beta, Week 1): 0.44 | Cohen's d, prediction of agomelatine outcome ([1]; REC, Higuchi Fractal Dimension, lower beta, Week 2): 0.36 | Cohen's d, prediction of agomelatine outcome ([1]; REC, Higuchi Fractal Dimension, lower beta, Week 4): 0.28 | Cohen's d, prediction of agomelatine outcome ([1]; REC, Higuchi Fractal Dimension, lower gamma, Week 1): 0.64 | Cohen's d, prediction of agomelatine outcome ([1]; REC, Higuchi Fractal Dimension, lower gamma, Week 2): 0.58 | Cohen's d, prediction of agomelatine outcome ([1]; REC, Higuchi Fractal Dimension, lower gamma, Week 4): 0.57 | Cohen's d, prediction of agomelatine outcome ([1]; REC, Higuchi Fractal Dimension, upper beta, Week 1): −0.29 | Cohen's d, prediction of agomelatine outcome ([1]; REC, Higuchi Fractal Dimension, upper beta, Week 2): −0.20 | Cohen's d, prediction of agomelatine outcome ([1]; REC, Higuchi Fractal Dimension, upper beta, Week 4): −0.05 | Cohen's d, prediction of agomelatine outcome ([1]; REC, Higuchi Fractal Dimension, upper gamma, Week 1): 0.16 | Cohen's d, prediction of agomelatine outcome ([1]; REC, Higuchi Fractal Dimension, upper gamma, Week 2): 0.16 | Cohen's d, prediction of agomelatine outcome ([1]; REC, Higuchi Fractal Dimension, upper gamma, Week 4): 0.21 | Cohen's d, prediction of agomelatine outcome ([1]; REC, Katz Fractal Dimension, lower beta, Week 1): 0.47 | Cohen's d, prediction of agomelatine outcome ([1]; REC, Katz Fractal Dimension, lower beta, Week 2): 0.42 | Cohen's d, prediction of agomelatine outcome ([1]; REC, Katz Fractal Dimension, lower beta, Week 4): 0.37 | Cohen's d, prediction of agomelatine outcome ([1]; REC, Katz Fractal Dimension, lower gamma, Week 1): 0.25 | Cohen's d, prediction of agomelatine outcome ([1]; REC, Katz Fractal Dimension, lower gamma, Week 2): 0.23 | Cohen's d, prediction of agomelatine outcome ([1]; REC, Katz Fractal Dimension, lower gamma, Week 4): 0.23 | Cohen's d, prediction of agomelatine outcome ([1]; REC, Katz Fractal Dimension, upper beta, Week 1): 0.42 | Cohen's d, prediction of agomelatine outcome ([1]; REC, Katz Fractal Dimension, upper beta, Week 2): 0.40 | Cohen's d, prediction of agomelatine outcome ([1]; REC, Katz Fractal Dimension, upper beta, Week 4): 0.42 | Cohen's d, prediction of agomelatine outcome ([1]; REC, Katz Fractal Dimension, upper gamma, Week 1): 0.04 | Cohen's d, prediction of agomelatine outcome ([1]; REC, Katz Fractal Dimension, upper gamma, Week 2): 0.10 | Cohen's d, prediction of agomelatine outcome ([1]; REC, Katz Fractal Dimension, upper gamma, Week 4): 0.23 | Cohen's d, prediction of agomelatine outcome ([1]; REC, Largest Lyapunov Exponent, upper alpha, Week 1): 0.10 | Cohen's d, prediction of agomelatine outcome ([1]; REC, Largest Lyapunov Exponent, upper alpha, Week 2): 0.12 | Cohen's d, prediction of agomelatine outcome ([1]; REC, Largest Lyapunov Exponent, upper alpha, Week 4): 0.18 | Cohen's d, prediction of agomelatine outcome ([1]; REC, Largest Lyapunov Exponent, upper gamma, Week 1): −0.02 | Cohen's d, prediction of agomelatine outcome ([1]; REC, Largest Lyapunov Exponent, upper gamma, Week 2): 0.08 | Cohen's d, prediction of agomelatine outcome ([1]; REC, Largest Lyapunov Exponent, upper gamma, Week 4): 0.29 | Cohen's d, prediction of agomelatine outcome ([1]; REC, Lempel-Ziv Complexity, lower gamma, Week 1): −0.06 | Cohen's d, prediction of agomelatine outcome ([1]; REC, Lempel-Ziv Complexity, lower gamma, Week 2): 0.01 | Cohen's d, prediction of agomelatine outcome ([1]; REC, Lempel-Ziv Complexity, lower gamma, Week 4): 0.15 | Cohen's d, prediction of agomelatine outcome ([1]; REC, Lempel-Ziv Complexity, upper alpha, Week 1): 0.21 | Cohen's d, prediction of agomelatine outcome ([1]; REC, Lempel-Ziv Complexity, upper alpha, Week 2): 0.17 | Cohen's d, prediction of agomelatine outcome ([1]; REC, Lempel-Ziv Complexity, upper alpha, Week 4): 0.13 | Cohen's d, prediction of agomelatine outcome ([1]; REC, Modified Multiscale Entropy, lower alpha, Week 1): 0.08 | Cohen's d, prediction of agomelatine outcome ([1]; REC, Modified Multiscale Entropy, lower alpha, Week 2): 0.11 | Cohen's d, prediction of agomelatine outcome ([1]; REC, Modified Multiscale Entropy, lower alpha, Week 4): 0.19 | Cohen's d, prediction of agomelatine outcome ([1]; REC, Modified Multiscale Entropy, lower gamma, Week 1): −0.09 | Cohen's d, prediction of agomelatine outcome ([1]; REC, Modified Multiscale Entropy, lower gamma, Week 2): 0.01 | Cohen's d, prediction of agomelatine outcome ([1]; REC, Modified Multiscale Entropy, lower gamma, Week 4): 0.21 | Cohen's d, prediction of agomelatine outcome ([1]; REC, Modified Multiscale Entropy, upper alpha, Week 1): 0.19 | Cohen's d, prediction of agomelatine outcome ([1]; REC, Modified Multiscale Entropy, upper alpha, Week 2): 0.25 | Cohen's d, prediction of agomelatine outcome ([1]; REC, Modified Multiscale Entropy, upper alpha, Week 4): 0.39 | Cohen's d, prediction of agomelatine outcome ([1]; REC, Multiscale Entropy, upper alpha, Week 1): 0.05 | Cohen's d, prediction of agomelatine outcome ([1]; REO, Approximate Entropy, lower gamma, Week 1): −0.15 | Cohen's d, prediction of agomelatine outcome ([1]; REO, Approximate Entropy, lower gamma, Week 2): −0.05 | Cohen's d, prediction of agomelatine outcome ([1]; REO, Approximate Entropy, lower gamma, Week 4): 0.09 | Cohen's d, prediction of agomelatine outcome ([1]; REO, Detrended Fluctuation Analysis, upper gamma, Week 1): 0.37 | Cohen's d, prediction of agomelatine outcome ([1]; REO, Detrended Fluctuation Analysis, upper gamma, Week 2): 0.33 | Cohen's d, prediction of agomelatine outcome ([1]; REO, Detrended Fluctuation Analysis, upper gamma, Week 4): 0.32 | Cohen's d, prediction of agomelatine outcome ([1]; REO, Higuchi Fractal Dimension, delta, Week 1): −0.15 | Cohen's d, prediction of agomelatine outcome ([1]; REO, Higuchi Fractal Dimension, delta, Week 2): −0.05 | Cohen's d, prediction of agomelatine outcome ([1]; REO, Higuchi Fractal Dimension, delta, Week 4): 0.12 | Cohen's d, prediction of agomelatine outcome ([1]; REO, Higuchi Fractal Dimension, lower beta, Week 1): 0.03 | Cohen's d, prediction of agomelatine outcome ([1]; REO, Higuchi Fractal Dimension, lower beta, Week 2): 0.03 | Cohen's d, prediction of agomelatine outcome ([1]; REO, Higuchi Fractal Dimension, lower beta, Week 4): 0.05 | Cohen's d, prediction of agomelatine outcome ([1]; REO, Higuchi Fractal Dimension, upper gamma, Week 1): 0.04 | Cohen's d, prediction of agomelatine outcome ([1]; REO, Higuchi Fractal Dimension, upper gamma, Week 2): 0.06 | Cohen's d, prediction of agomelatine outcome ([1]; REO, Higuchi Fractal Dimension, upper gamma, Week 4): 0.11 | Cohen's d, prediction of agomelatine outcome ([1]; REO, Katz Fractal Dimension, delta, Week 1): 0.04 | Cohen's d, prediction of agomelatine outcome ([1]; REO, Katz Fractal Dimension, delta, Week 2): 0.07 | Cohen's d, prediction of agomelatine outcome ([1]; REO, Katz Fractal Dimension, delta, Week 4): 0.13 | Cohen's d, prediction of agomelatine outcome ([1]; REO, Katz Fractal Dimension, lower beta, Week 1): 0.28 | Cohen's d, prediction of agomelatine outcome ([1]; REO, Katz Fractal Dimension, lower beta, Week 2): 0.18 | Cohen's d, prediction of agomelatine outcome ([1]; REO, Katz Fractal Dimension, lower beta, Week 4): 0.06 | Cohen's d, prediction of agomelatine outcome ([1]; REO, Katz Fractal Dimension, upper beta, Week 1): 0.24 | Cohen's d, prediction of agomelatine outcome ([1]; REO, Katz Fractal Dimension, upper beta, Week 2): 0.24 | Cohen's d, prediction of agomelatine outcome ([1]; REO, Katz Fractal Dimension, upper beta, Week 4): 0.29 | Cohen's d, prediction of agomelatine outcome ([1]; REO, Largest Lyapunov Exponent, upper alpha, Week 1): 0.03 | Cohen's d, prediction of agomelatine outcome ([1]; REO, Largest Lyapunov Exponent, upper alpha, Week 2): 0.08 | Cohen's d, prediction of agomelatine outcome ([1]; REO, Largest Lyapunov Exponent, upper alpha, Week 4): 0.17 | Cohen's d, prediction of agomelatine outcome ([1]; REO, Largest Lyapunov Exponent, upper gamma, Week 1): −0.24 | Cohen's d, prediction of agomelatine outcome ([1]; REO, Largest Lyapunov Exponent, upper gamma, Week 2): −0.11 | Cohen's d, prediction of agomelatine outcome ([1]; REO, Largest Lyapunov Exponent, upper gamma, Week 4): 0.08 | Cohen's d, prediction of agomelatine outcome ([1]; REO, Lempel-Ziv Complexity, lower gamma, Week 1): −0.24 | Cohen's d, prediction of agomelatine outcome ([1]; REO, Lempel-Ziv Complexity, lower gamma, Week 2): −0.13 | Cohen's d, prediction of agomelatine outcome ([1]; REO, Lempel-Ziv Complexity, lower gamma, Week 4): 0.02 | Cohen's d, prediction of agomelatine outcome ([1]; REO, Lempel-Ziv Complexity, theta, Week 1): 0.13 | Cohen's d, prediction of agomelatine outcome ([1]; REO, Lempel-Ziv Complexity, theta, Week 2): 0.14 | Cohen's d, prediction of agomelatine outcome ([1]; REO, Lempel-Ziv Complexity, theta, Week 4): 0.17 | Cohen's d, prediction of agomelatine outcome ([1]; REO, Lempel-Ziv Complexity, upper beta, Week 1): 0.19 | Cohen's d, prediction of agomelatine outcome ([1]; REO, Lempel-Ziv Complexity, upper beta, Week 2): 0.21 | Cohen's d, prediction of agomelatine outcome ([1]; REO, Lempel-Ziv Complexity, upper beta, Week 4): 0.30 | Cohen's d, prediction of agomelatine outcome ([1]; REO, Modified Multiscale Entropy, upper beta, Week 1): 0.08 | Cohen's d, prediction of agomelatine outcome ([1]; REO, Modified Multiscale Entropy, upper beta, Week 2): 0.15 | Cohen's d, prediction of agomelatine outcome ([1]; REO, Modified Multiscale Entropy, upper beta, Week 4): 0.31 | Cohen's d, prediction of agomelatine outcome ([1]; REO, Multiscale Entropy, lower gamma, Week 1): −0.41 | Cohen's d, prediction of agomelatine outcome ([1]; REO, Multiscale Entropy, lower gamma, Week 2): −0.21 | Cohen's d, prediction of agomelatine outcome ([1]; REO, Multiscale Entropy, lower gamma, Week 4): 0.05 | MADRS change, high vs low Pz low-gamma sample entropy ([1]; z≥0.27, full study sample, all weeks): strong and statistically significant prediction of treatment outcome across all weeks | all-comer effect size d, treatment response to agomelatine (as monotherapy) versus placebo [2]: 0.26
